Read-outs that look alike come from different tables or passages of the source.
Tested on: P. falciparum K1
Experiment: Plasmodium falciparum in vitro assay ([3H] hypoxanthine incorporation)
Type: cell-based
Description: In vitro antimalarial activity: Plasmodium falciparum in vitro assay In vitro activity against erythrocytic stages of P. falciparum is determined using a [^3H] hypoxanthine incorporation assay. One strain resistant to chloroquine and pyrimethamine (P. falciparum K1) is used in the assays, and all test compounds are compared for activity with the standard drugs chloroquine (sigma C6628) and artemisinin (sigma-36, 159-3). Compounds are diluted in DMSO to 1 mM and added to parasite cultures incubated in RPMI 1640 medium without hypoxanthine, supplemented with HEPES (5.94 g/L), NaHCO3 (2.1 g/L), neomycin (100 U/mL), Albumax (5 g/L) and washed human red cells at 2.5% hematocrit (0.3% parasitaemia). Seven serial doubling dilutions of each drug are prepared in 96-well microtitre plates and incubated in a humidifying atmosphere at 37° C.; 4% CO2, 3% O2, 93% N2.
After 48 h, 50 μl of [^3H] hypoxanthine (0.5 μCi) is added to each well of a plate. The plates are incubated for a further 24 h under the same conditions. The plates are then harvested with a Betaplate cell harvester (Wallac) and washed with distilled water. The dried filters are inserted into a plastic foil with 10 mL of scintillation fluid, and counted in a Betaplate liquid scintillation counter. IC50 values are calculated from sigmoidal inhibition curves using Microsoft Excel.

[1] = Plasmodium falciparum, erythrocytic stages, strain K1 resistant to chloroquine and pyrimethamine, human red cells, read-out: IC50 (nM) on K1
[2] = erythrocytic stages, strain K1 resistant to chloroquine and pyrimethamine, human red cells, read-out: IC50 (nM) on K1

Row | IC50 [1] | SMILES | also measured
1 | 107 nM | Cn1cc(CC(C(=O)N2CCc3ccccc3C2)N(Cc2ccc(-c3ccncc3)cc2)C(=O)C=Cc2ccc(C(F)(F)F)cc2)cn1 (racemic) [Example 80, rac-N-[2-(3,4-Dihydro-1H-isoquinolin-2-yl)-1-(1-methyl-1H-pyrazol-4-ylmethyl)-2-oxo-ethyl]-N-(4-pyridin-4-yl-benzyl)-3-(4-trifluoromethyl-phenyl)-acrylamide] | –
2 | 24 nM | Cn1ccc(CC(C(=O)N2CCc3ccccc3C2)N(Cc2ccc(-c3ccncc3)cc2)C(=O)C=Cc2ccc(C(F)(F)F)cc2)n1 (racemic) [Example 82, rac-N-[2-(3,4-Dihydro-1H-isoquinolin-2-yl)-1-(1-methyl-1H-pyrazol-3-ylmethyl)-2-oxo-ethyl]-N-(4-pyridin-4-yl-benzyl)-3-(4-trifluoromethyl-phenyl)-acrylamide] | –
3 | 84 nM | Cn1nccc1CC(C(=O)N1CCc2ccccc2C1)N(Cc1ccc(-c2ccncc2)cc1)C(=O)C=Cc1ccc(C(F)(F)F)cc1 (racemic) [Example 84, rac-N-[2-(3,4-Dihydro-1H-isoquinolin-2-yl)-1-(2-methyl-2H-pyrazol-3-ylmethyl)-2-oxo-ethyl]-N-(4-pyridin-4-yl-benzyl)-3-(4-trifluoromethyl-phenyl)-acrylamide] | –
4 | 162 nM | O=C(C(Cc1ncccn1)N(Cc1ccc(-c2ccncc2)cc1)C(=O)C=Cc1ccc(C(F)(F)F)cc1)N1CCc2ccccc2C1 (racemic) [Example 86, rac-N-[2-(3,4-Dihydro-1H-isoquinolin-2-yl)-2-oxo-1-pyrimidin-2-ylmethyl-ethyl]-N-(4-pyridin-4-yl-benzyl)-3-(4-trifluoromethyl-phenyl)-acrylamide] | –
5 | 194 nM | O=C(C(Cc1ccon1)N(Cc1ccc(-c2ccncc2)cc1)C(=O)C=Cc1ccc(C(F)(F)F)cc1)N1CCc2ccccc2C1 (racemic) [Example 87, rac-N-[2-(3,4-Dihydro-1H-isoquinolin-2-yl)-1-isoxazol-3-ylmethyl-2-oxo-ethyl]-N-(4-pyridin-4-yl-benzyl)-3-(4-trifluoromethyl-phenyl)-acrylamide] | –
6 | 2 nM | C[C@@H]1CC[C@H]2[C@@H](C)C(=O)O[C@@H]3O[C@@]4(C)CC[C@@H]1[C@]32OO4 [Artemisinin, artemisinin, reference compound] | –
7 | – | CCN(CC)CCCC(C)Nc1ccnc2cc(Cl)ccc12 (centres unmarked) [Chloroquine, chloroquine, reference compound] | IC50 (Plasmodium falciparum, K1, read-out: IC50 (nM) on K1): 300 nM
8 | 3.5 nM | O=C([C@H](Cc1ccccc1)N(Cc1ccc(-c2ccccn2)cc1)C(=O)/C=C/c1ccc(C(F)(F)F)cc1)N1CCc2ccccc2C1 [Example 1, (S)—N-[1-Benzyl-2-(3,4-dihydro-1H-isoquinolin-2-yl)-2-oxo-ethyl]-N-(4-pyridin-2-yl-benzyl)-3-(trifluoromethyl-phenyl)-acrylamide] | –
9 | 5 nM | O=C([C@H](Cc1ccccc1)N(Cc1ccc(-c2cncnc2)cc1)C(=O)C=Cc1ccc(C(F)(F)F)nc1)N1CCc2ccccc2C1 [Example 4, (S)—N-[1-Benzyl-2-(3,4-dihydro-1H-isoquinolin-2-yl)-2-oxo-ethyl]-N-(4-pyrimidin-5-yl-benzyl)-3-(6-trifluoromethyl-pyridin-3-yl)-acrylamide] | –
10 | 25 nM | O=C([C@H](Cc1ccccc1)N(Cc1ccccn1)C(=O)C=Cc1ccc(C(F)(F)F)cc1)N1CCc2ccccc2C1 [Example 6, (S)—N-[1-Benzyl-2-(3,4-dihydro-1H-isoquinolin-2-yl)-2-oxo-ethyl]-N-pyridin-2-ylmethyl-3-(4-trifluoromethyl-phenyl)-acrylamide] | –
11 | 14 nM | O=C([C@H](Cc1ccccc1)N(Cc1ccc(-c2ccccn2)cc1)C(=O)C=Cc1ccc(C(F)(F)F)cc1)N1CCc2cc(F)ccc2C1 [Example 10, (S)—N-[1-Benzyl-2-(6-fluoro-3,4-dihydro-1H-isoquinolin-2-yl)-2-oxo-ethyl]-N-(4-pyridin-2-yl-benzyl)-3-(4-trifluoromethyl-phenyl)-acrylamide] | –
12 | – | COc1cc(C=CC(=O)N(Cc2ccc(-c3ccccn3)cc2)[C@@H](Cc2ccccc2)C(=O)N2CCc3ccccc3C2)cc(OC)c1 [Example 14, (S)—N-[1-Benzyl-2-(3,4-dihydro-1-H-isoquinolin-2-yl)-2-oxo-ethyl]-3-(3,5-dimethoxy-phenyl)-N-(4-pyridin-2-yl-benzyl)-acrylamide] | IC50 [2]: 18 nM
13 | – | O=C([C@H](Cc1ccccc1)N(Cc1ccc(-c2ccccn2)cc1)C(=O)C=Cc1cccc(Cl)c1Cl)N1CCc2ccccc2C1 [Example 25, (S)—N-[1-Benzyl-2-(3,4-dihydro-1-H-isoquinolin-2-yl)-2-oxo-ethyl]-3-(2,3-dichloro-phenyl)-N-(4-pyridin-2-yl-benzyl)-acrylamide] | IC50 [2]: 13 nM
14 | – | Cc1ccc(C=CC(=O)N(Cc2ccc(-c3ccccn3)cc2)[C@@H](Cc2ccccc2)C(=O)N2CCc3ccccc3C2)cc1 [Example 32, (S)—N-[1-Benzyl-2-(3,4-dihydro-1-H-isoquinolin-2-yl)-2-oxo-ethyl]-N-(4-pyridin-2-yl-benzyl)-3-p-tolyl-acrylamide] | IC50 [2]: 7.5 nM
15 | – | CN(C)c1ccc(C=CC(=O)N(Cc2ccc(-c3ccccn3)cc2)[C@@H](Cc2ccccc2)C(=O)N2CCc3ccccc3C2)cc1 [Example 38, (S)—N-[1-Benzyl-2-(3,4-dihydro-1-H-isoquinolin-2-yl)-2-oxo-ethyl]-3-(4-dimethylamino-phenyl)-N-(4-pyridin-2-yl-benzyl)-acrylamide] | IC50 [2]: 10 nM
16 | 17 nM | Cc1nc(C)c(C=CC(=O)N(Cc2ccc(-c3ccccn3)cc2)[C@@H](Cc2ccccc2)C(=O)N2CCc3ccccc3C2)s1 [Example 51, (S)—N-[1-Benzyl-2-(3,4-dihydro-1H-isoquinolin-2-yl)-2-oxo-ethyl]-3-(2,4-dimethyl-thiazol-5-yl)-N-(4-pyridin-2-yl-benzyl)-acrylamide] | –
17 | 14 nM | Cc1ccc(C=CC(=O)N(Cc2ccc(-c3ccccn3)cc2)[C@@H](Cc2ccccc2)C(=O)N2CCc3ccccc3C2)cn1 [Example 59, (S)—N-[1-Benzyl-2-(3,4-dihydro-1H-isoquinolin-2-yl)-2-oxo-ethyl]-3-(6-methyl-pyridin-3-yl)-N-(4-pyridin-2-yl-benzyl)-acrylamide] | –
18 | 10 nM | COc1ccc(C=CC(=O)N(Cc2ccc(-c3ccccn3)cc2)[C@@H](Cc2ccccc2)C(=O)N2CCc3ccccc3C2)cn1 [Example 62, (S)—N-[1-Benzyl-2-(3,4-dihydro-1H-isoquinolin-2-yl)-2-oxo-ethyl]-3-(6-methoxy-pyridin-3-yl)-N-(4-pyridin-2-yl-benzyl)-acrylamide] | –
19 | 10 nM | Cc1c(C=CC(=O)N(Cc2ccc(-c3ccccn3)cc2)[C@@H](Cc2ccccc2)C(=O)N2CCc3ccccc3C2)cnn1C [Example 65, (S)—N-[1-Benzyl-2-(3,4-dihydro-1H-isoquinolin-2-yl)-2-oxo-ethyl]-3-(1,5-dimethyl-1H-pyrazol-4-yl)-N-(4-pyridin-2-yl-benzyl)-acrylamide] | –
20 | 12 nM | COc1ccc2c(c1)CN(C(=O)[C@H](Cc1ccccc1)N(Cc1ccc(-c3ccccn3)cc1)C(=O)C=Cc1ccc(C(F)(F)F)cc1)CC2 [Example 69, (S)—N-[1-Benzyl-2-(7-methoxy-3,4-dihydro-1H-isoquinolin-2-yl)-2-oxo-ethyl]-N-(4-pyridin-2-yl-benzyl)-3-(4-trifluoromethyl-phenyl)-acrylamide] | –
